Measured values taken from US20120309734A1, “COMBRETASTATIN DERIVATIVES AND USES THEREFOR” (priority 2009, published 2012).
Read-outs that look alike come from different tables or passages of the source.

Legend:
[1] = system: MCF-7 breast cancer cell line; experiment: Antiproliferation study, MTT cell viability assay; type: cell-based; settings: Homo sapiens
Method: All assays were performed in triplicate for the determination of mean values reported. Compounds were assayed as the free bases isolated from reaction. The human breast tumour cell line MCF-7 was cultured in Eagles minimum essential medium in a […] atmosphere with 10% fetal bovine serum, 2 mM L-glutamine and 100 μg/mL penicillin/streptomycin. The medium was supplemented with 1% non-essential amino acids. MDA-MB-231 cells were maintained in Dulbecco's Modified Eagle's medium (DMEM), supplemented with 10% (v/v) Fetal bovine serum, 2 mM L-glutamine and 100 μg/mL penicillin/streptomycin (complete medium). Cells were trypsinised and seeded at a density of 2.5×10^4 cells/ml in a 96-well plate and incubated at 37° C., […] atmosphere for 24 h. […] Control wells contained the equivalent volume of the vehicle ethanol (1% v/v). The culture medium was then removed and the cells washed with 100 μL phosphate buffered saline (PBS) and 50 μL MTT added, to reach a final concentration of 1 mg/mL MTT added. Cells were incubated for 2 h in darkness at 37° C. At this point solubilization was begun through the addition of 200 μL DMSO and the cells maintained at room temperature in darkness for 20 min to ensure thorough colour diffusion before reading the absorbance. The absorbance value of control cells (no added compound) was set to 100% cell viability and from this graphs of absorbance versus cell density per well were prepared to assess cell viability and from these, graphs of percentage cell viability versus concentration of subject compound added were drawn.

[2] = system: human promyelocytic leukaemia HL-60 cells; experiment: MTT cell viability assay; type: cell-based; settings: read-out: Inhibition of cell viability (IC50 value, nM) HL-60
[3] = system: human chronic myeloid leukaemia K562 cells; experiment: MTT cell viability assay; type: cell-based; settings: read-out: Inhibition of cell viability (IC50 value, nM) K562
[4] = system: normal mouse mammary epithelial cells; experiment: Viability of normal mammary epithelial cells; type: cell-based
Method: The maximum toxicity elicited by these drugs on normal cells at a concentration of 10 nM was only 8% (see Table 4).

[5] = target: T1, purified human liver cathepsin-L (Homo sapiens, UniProt P07711); experiment: Fluorogenic cathepsin-L activity kit; type: biochemical; settings: FIG. 2
T1 construct: uses purified human liver cathepsin-L as the source of the cathepsin; purchased calbiochem; host or cells: human liver
T1 sequence (P07711 114-333): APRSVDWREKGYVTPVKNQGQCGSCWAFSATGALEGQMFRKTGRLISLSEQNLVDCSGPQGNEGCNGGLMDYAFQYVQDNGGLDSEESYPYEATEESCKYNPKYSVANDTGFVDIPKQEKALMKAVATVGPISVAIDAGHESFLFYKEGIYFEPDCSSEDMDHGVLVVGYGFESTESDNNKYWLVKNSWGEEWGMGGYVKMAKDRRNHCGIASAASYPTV
Method: Cathepsin L activity was measured using the fluorogenic cathepsin-L activity kit from calbiochem which uses purified human liver cathepsin-L as the source of the cathepsin. […] Values represent the mean+/−range of two separate experiments each carried out in duplicate.

[6] = system: normal mouse mammary epithelial cells; experiment: Viability of normal mammary epithelial cells; type: cell-based; settings: 72 hr treatment
MDA-MB-231 cells [7] = experiment: Antiproliferation study, MTT cell viability assay; type: cell-based; settings: Homo sapiens, read-out: antiproliferative effects, MDA-MB-231
Method: All assays were performed in triplicate for the determination of mean values reported. Compounds were assayed as the free bases isolated from reaction. The human breast tumour cell line MCF-7 was cultured in Eagles minimum essential medium in a […] atmosphere with 10% fetal bovine serum, 2 mM L-glutamine and 100 μg/mL penicillin/streptomycin. The medium was supplemented with 1% non-essential amino acids. MDA-MB-231 cells were maintained in Dulbecco's Modified Eagle's medium (DMEM), supplemented with 10% (v/v) Fetal bovine serum, 2 mM L-glutamine and 100 μg/mL penicillin/streptomycin (complete medium). […] At this point solubilization was begun through the addition of 200 μL DMSO and the cells maintained at room temperature in darkness for 20 min to ensure thorough colour diffusion before reading the absorbance. The absorbance value of control cells (no added compound) was set to 100% cell viability and from this graphs of absorbance versus cell density per well were prepared to assess cell viability and from these, graphs of percentage cell viability versus concentration of subject compound added were drawn.
(§1) MDA-MB-231 cells were treated with vehicle (1% (v/v) ethanol) or 10 nM, 100 nM, 1 μM and 10 μM (final concentrations) of 25. Cells were harvested after 24, 48 or 72 hours and analysed for DNA content by flow cytometry.

MDA-MB-231 cells [8] = experiment: Cell cycle analysis by flow cytometry (PI); type: cell-based, human
Method: The MDA-MB-231 cells were seeded at a density of 18×10^4 cells/mL in 5 mL of medium (900,000 cells per flask). After 24 hours the control was treated with 50 μL of ethanol (1% v/v) and selected compound dosed at range 10 nM-10 μM (final concentration, 1% v/v). They were incubated for 72 hours. Following incubation, the cells were removed from the bottom of the flask by scraping and the medium placed in a 20 mL sterilin. They were centrifuged for 10 minutes at 600×g. The supernatant was decanted and the pellet resuspended in 1 mL of ice-cold PBS; cells were again centrifuged for 10 minutes at 600×g. The supernatant was decanted and the pellet resuspended in 200 μL of ice-cold phosphate buffer saline (PBS). Subsequently ice-cold 70% ethanol (2 mL) was slowly added to the tube as it was gently vortexed. The cells were kept at −20° C. for at least one hour. After the fixation 5 μL of FBS was added to the samples. The cells were harvested by centrifugation at 600×g for 10 mins. The ethanol was carefully removed and the pellet resuspended in 400 μL of PBS and transferred to FACS microtubes. A 25 μL aliquot of RNase A (1 mg/mL) and 75 μL of propidium iodide (PI) 1 mg/mL, a DNA binding fluorescent dye, was added to each tube. The samples were wrapped in aluminium foil and incubated for a minimum of 30 min at 37° C. The samples were read at 488 nm using FACscalibur flow cytometer from Becton Dickinson. The FACS data for 10,000 cells was analysed using the Macintosh-based application Cellquest and the data was stored as frequency histograms.
as §1

[9] = system: purified bovine brain tubulin; experiment: Tubulin polymerization assay (turbidity); type: biochemical
Method: The effect of compounds on the assembly of purified bovine brain tubulin was determined spectrophotometrically by monitoring the change in turbidity. This assay used a 96-well plate format with 300 μg of >99% purified bovine brain tubulin in each well. […] 10 μl of 10× strength of each compound tested was pipetted into a half area 96-well plate prewarmed to 37° C. A 100 μl volume of tubulin was then pipetted into the prewarmed plate. Samples were mixed well and tubulin assembly was monitored at an A340 nm at 30 second intervals for 60 minutes at 37° C. in a Spectromax 340PC spectrophotometer (Molecular Devices).

[10] = MCF7, 72 h, antiproliferative activity, MTT, 72 h, read-out: IC50 (μM) MCF-7 cell line

Compound: COc1ccc(C2C(c3ccc(O)cc3)C(=O)N2c2cc(OC)c(OC)c(OC)c2)cc1O (stereo not drawn) [Compound 14, 4-(3-Hydroxy-4-methoxy-phenyl)-3-(4-hydroxy-phenyl)-1-(3,4,5-trimethoxy-phenyl)-azetidin-2-one]
- IC50 [1, 10]: 0.0008 µM
- IC50 ([1]; MCF7, MTT cell viability assay, read-out: Inhibition of cell viability (IC50 value, nM) MCF-7): 0.0008 to 0.0031 µM
- IC50 [2]: 0.4 nM
- IC50 [3]: 0.9 nM
- Percent viability of normal mammary epithelial cells compared to control ([4]; 10 nM, 72 hr treatment): 90%
- effects on normal mammary epithelial cells ([4]; up to 10 μM): minimal effects
- inhibition of cathepsin-L activity [5]: inhibited cathepsin-L in the nanomolar range
- melting point: 152 °C
- Percent viability of normal mammary epithelial cells compared to control ([6]; 1 nM): 93.8%
- Percent viability of normal mammary epithelial cells compared to control ([6]; 100 nM): 73.2%
- Percent viability of normal mammary epithelial cells compared to control ([6]; 1 μM): 75.2%
- Percent viability of normal mammary epithelial cells compared to control ([6]; 10 μM): 74.8%

Compound: COc1ccc(C2CC(=O)N2c2cc(OC)c(OC)c(OC)c2)cc1O (stereo not drawn) [Compound 25]
- IC50 [1, 10]: 0.017 µM
- IC50 ([1]; MCF7, read-out: antiproliferative effects, MCF-7): 0.017 µM
- IC50 (MDA-MB-231 cells [7]): 54 nM
- G1 (%) (MDA-MB-231 cells [8]; 10 nM, 24 hours): 48.33 ± 4.18%
- G2/M (%) (MDA-MB-231 cells [8]; 10 nM, 24 hours): 25.61 ± 0.98%
- M5 (%) (MDA-MB-231 cells [8]; 10 nM, 24 hours): 2.84 ± 0.59%
- S (%) (MDA-MB-231 cells [8]; 10 nM, 24 hours): 12.55 ± 2.54%
- Sub-G1 (%) (MDA-MB-231 cells [8]; 10 nM, 24 hours): 3.72 ± 1.97%
- G1 (%) (MDA-MB-231 cells [8]; 10 nM, 48 hours): 45.25 ± 7.37%
- G2/M (%) (MDA-MB-231 cells [8]; 10 nM, 48 hours): 23.71 ± 7.81%
- M5 (%) (MDA-MB-231 cells [8]; 10 nM, 48 hours): 6.10 ± 0.62%
- S (%) (MDA-MB-231 cells [8]; 10 nM, 48 hours): 13.36 ± 2.58%
- Sub-G1 (%) (MDA-MB-231 cells [8]; 10 nM, 48 hours): 11.57 ± 3.06%
- G1 (%) (MDA-MB-231 cells [8]; 10 nM, 72 hours): 48.24 ± 2.79%
- G2/M (%) (MDA-MB-231 cells [8]; 10 nM, 72 hours): 17.68 ± 4.58%
- M5 (%) (MDA-MB-231 cells [8]; 10 nM, 72 hours): 3.55 ± 1.57%
- S (%) (MDA-MB-231 cells [8]; 10 nM, 72 hours): 9.08 ± 2.32%
- Sub-G1 (%) (MDA-MB-231 cells [8]; 10 nM, 72 hours): 15.25 ± 2.03%
- G1 (%) (MDA-MB-231 cells [8]; 100 nM, 24 hours): 18.95 ± 6.60%
- G2/M (%) (MDA-MB-231 cells [8]; 100 nM, 24 hours): 59.43 ± 3.13%
- M5 (%) (MDA-MB-231 cells [8]; 100 nM, 24 hours): 4.87 ± 4.39%
- S (%) (MDA-MB-231 cells [8]; 100 nM, 24 hours): 6.05 ± 0.38%
- Sub-G1 (%) (MDA-MB-231 cells [8]; 100 nM, 24 hours): 4.88 ± 0.85%
- G1 (%) (MDA-MB-231 cells [8]; 100 nM, 48 hours): 10.76 ± 0.34%
- G2/M (%) (MDA-MB-231 cells [8]; 100 nM, 48 hours): 36.42 ± 3.42%
- M5 (%) (MDA-MB-231 cells [8]; 100 nM, 48 hours): 4.61 ± 0.86%
- S (%) (MDA-MB-231 cells [8]; 100 nM, 48 hours): 8.90 ± 0.85%
- Sub-G1 (%) (MDA-MB-231 cells [8]; 100 nM, 48 hours): 37.50 ± 0.71%
- G1 (%) (MDA-MB-231 cells [8]; 100 nM, 72 hours): 13.90 ± 3.62%
- G2/M (%) (MDA-MB-231 cells [8]; 100 nM, 72 hours): 12.62 ± 9.22%
- M5 (%) (MDA-MB-231 cells [8]; 100 nM, 72 hours): 2.99 ± 1.89%
- S (%) (MDA-MB-231 cells [8]; 100 nM, 72 hours): 5.34 ± 4.32%
- Sub-G1 (%) (MDA-MB-231 cells [8]; 100 nM, 72 hours): 63.10 ± 20.06%
- G1 (%) (MDA-MB-231 cells [8]; 1 μM, 24 hours): 19.22 ± 6.19%
- G2/M (%) (MDA-MB-231 cells [8]; 1 μM, 24 hours): 63.16 ± 4.86%
- M5 (%) (MDA-MB-231 cells [8]; 1 μM, 24 hours): 4.31 ± 3.17%
- S (%) (MDA-MB-231 cells [8]; 1 μM, 24 hours): 6.01 ± 2.90%
- Sub-G1 (%) (MDA-MB-231 cells [8]; 1 μM, 24 hours): 7.08 ± 4.20%
- G1 (%) (MDA-MB-231 cells [8]; 1 μM, 72 hours): 14.29 ± 2.20%
- G2/M (%) (MDA-MB-231 cells [8]; 1 μM, 72 hours): 21.24 ± 12.05%
- M5 (%) (MDA-MB-231 cells [8]; 1 μM, 72 hours): 5.97 ± 4.71%
- S (%) (MDA-MB-231 cells [8]; 1 μM, 72 hours): 7.76 ± 0.58%
- Sub-G1 (%) (MDA-MB-231 cells [8]; 1 μM, 72 hours): 50.53 ± 14.78%
- G1 (%) (MDA-MB-231 cells [8]; 10 μM, 24 hours): 29.30 ± 5.95%
- G2/M (%) (MDA-MB-231 cells [8]; 10 μM, 24 hours): 55.36 ± 1.49%
- M5 (%) (MDA-MB-231 cells [8]; 10 μM, 24 hours): 3.85 ± 3.83%
- S (%) (MDA-MB-231 cells [8]; 10 μM, 24 hours): 3.72 ± 0.71%
- Sub-G1 (%) (MDA-MB-231 cells [8]; 10 μM, 24 hours): 3.18 ± 0.25%
- G1 (%) (MDA-MB-231 cells [8]; 10 μM, 48 hours): 14.44 ± 2.28%
- G2/M (%) (MDA-MB-231 cells [8]; 10 μM, 48 hours): 27.25 ± 4.45%
- M5 (%) (MDA-MB-231 cells [8]; 10 μM, 48 hours): 2.28 ± 0.06%
- S (%) (MDA-MB-231 cells [8]; 10 μM, 48 hours): 4.47 ± 0.06%
- Sub-G1 (%) (MDA-MB-231 cells [8]; 10 μM, 48 hours): 51.27 ± 6.31%
- G1 (%) (MDA-MB-231 cells [8]; 10 μM, 72 hours): 17.14 ± 3.31%
- G2/M (%) (MDA-MB-231 cells [8]; 10 μM, 72 hours): 21.81 ± 12.40%
- M5 (%) (MDA-MB-231 cells [8]; 10 μM, 72 hours): 3.38 ± 2.84%
- S (%) (MDA-MB-231 cells [8]; 10 μM, 72 hours): 9.66 ± 1.84%
- Sub-G1 (%) (MDA-MB-231 cells [8]; 10 μM, 72 hours): 46.49 ± 17.49%
- X-fold inhibition of tubulin polymerisation (Vmax ± SEM) ([9]; 1 μM): 1.1 ± 0.2 fold
- X-fold inhibition of tubulin polymerisation (Vmax ± SEM) ([9]; 10 μM): 10.2 ± 2.3 fold
